Reference: PubChem BioAssay AID1645863 (Buhrlage Lab, Dana-Farber Cancer Institute and Novartis …, 2021)
pIC50: −log10 of the molar value. Calls of active or inactive are those of the source. How the calls were made is not given here.

Molecular target: Ubiquitin carboxyl-terminal hydrolase 10 (Homo sapiens) (UniProt Q14694)
Experiment: ubiquitin-specific protease 10 DUB inhibitors, concentration-effect, biochemical, verification of primary screen actives (AID 1645863);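 further: potency values describe inhibition of USP10 cleavage of a fluorogenic ubiquitin substrate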
Settings: USP10 deubiquitinase enzymatic assay

Chain of Ubiquitin carboxyl-terminal hydrolase 10 (Homo sapiens) (Q14694 whole entry, looked up): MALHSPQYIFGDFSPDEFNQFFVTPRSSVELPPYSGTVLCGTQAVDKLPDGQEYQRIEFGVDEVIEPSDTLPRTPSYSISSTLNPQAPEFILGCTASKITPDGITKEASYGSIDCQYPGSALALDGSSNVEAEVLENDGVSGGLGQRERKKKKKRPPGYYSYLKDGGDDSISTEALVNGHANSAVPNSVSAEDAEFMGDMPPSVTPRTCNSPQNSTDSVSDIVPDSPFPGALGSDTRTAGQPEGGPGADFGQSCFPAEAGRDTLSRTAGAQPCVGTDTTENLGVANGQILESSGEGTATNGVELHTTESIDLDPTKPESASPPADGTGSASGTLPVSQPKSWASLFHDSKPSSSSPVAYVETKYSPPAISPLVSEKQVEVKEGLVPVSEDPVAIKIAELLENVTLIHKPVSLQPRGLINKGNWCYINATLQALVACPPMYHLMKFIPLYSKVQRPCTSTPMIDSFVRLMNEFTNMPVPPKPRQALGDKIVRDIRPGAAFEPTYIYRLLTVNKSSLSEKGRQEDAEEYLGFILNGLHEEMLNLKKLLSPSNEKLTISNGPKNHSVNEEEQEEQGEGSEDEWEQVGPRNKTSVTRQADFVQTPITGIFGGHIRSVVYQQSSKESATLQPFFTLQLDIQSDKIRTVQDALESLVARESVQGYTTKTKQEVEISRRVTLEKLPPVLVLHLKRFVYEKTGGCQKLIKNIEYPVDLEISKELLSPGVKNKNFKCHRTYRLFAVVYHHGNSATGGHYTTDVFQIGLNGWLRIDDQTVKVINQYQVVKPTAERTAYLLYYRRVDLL

Row | IC50 | pIC50 | SMILES
1 | > 40 µM (inactive) | – | Cc1ccc(NC(=O)Nc2ccccc2OCc2cc(=O)n3cc(C)ccc3n2)cc1
2 | > 40 µM (inactive) | – | Fc1cccc(Nc2ncnc3c2oc2ccccc23)c1
3 | > 40 µM (inactive) | – | Cc1ncc(-c2ccc3c(c2)OCO3)c(-c2nccs2)n1
4 | > 40 µM (inactive) | – | COc1ccc2c(c1)CCc1c-2nc2ccccc2c1N1CCOCC1
5 | > 40 µM (inactive) | – | COc1c2nc3ccccc3oc-2cc(=O)c1OC
6 | – | 5.00 | CCC(C(=O)C(C)C(O)C(C)CCc1ccc(C)c(O)c1C(=O)O)C1OC(CC)(C2CCC(O)(CC)C(C)O2)CC1C (stereo not drawn)
7 | > 40 µM (inactive) | – | CCc1ccc(NC(=O)Cn2c(=O)n(Cc3ccccc3)c(=O)c3nn(CC)cc32)cc1
8 | > 40 µM (inactive) | – | O=C(Oc1ccc2cc(Br)ccc2c1)c1ccncc1
9 | – | 4.58 | Cc1cccc(NC(=O)CSc2nc3c(cc2C#N)C(=O)CCC3)c1
10 | > 40 µM (inactive) | – | Cc1cccc(N2C(=O)/C(=C\c3ccc4c(c3)OCCO4)c3ccccc3C2=O)c1
11 | > 40 µM (inactive) | – | Cc1cc(-c2nnc(SCC(=O)Nc3ccc(Br)c(C)c3)n2N)n[nH]1
12 | – | 4.58 | O=C(Nc1ccc(F)cc1)Nc1ccccc1OCc1cc(=O)n2ccccc2n1
13 | > 40 µM (inactive) | – | O=C(COC(=O)c1cccc([N+](=O)[O-])c1)Nc1cccc(Oc2ccccc2)c1
14 | > 40 µM (inactive) | – | Cc1c(Cl)cccc1NC(=O)Cn1cc(C(=O)C2CC2)c2ccccc21
15 | – | 4.99 | O=C1Nc2ccccc2C(=O)C1C(c1ccc(Cl)cc1)C1C(=O)Nc2ccccc2C1=O (stereo not drawn)
16 | > 40 µM (inactive) | – | Cc1ccccc1NC(=O)Cn1ccc2ccn(Cc3ccccc3)c2c1=O
17 | > 40 µM (inactive) | – | COc1ccc2nc(N3CC(C(=O)Nc4ccc(C(N)=O)cc4)C3)sc2c1
18 | – | 4.44 | C[C@H](NC(=O)Cc1ccccc1F)c1nc2cc(-c3ccccc3F)ncn2n1
19 | – | 4.75 | CCOc1ccc(NC(=O)Cn2c(=O)n(CCCCCC(=O)NCc3ccc(F)cc3)c(=O)c3sccc32)cc1
20 | – | 4.93 | CC/C=C\C/C=C\C/C=C\CCCCCCCC(=O)O
21 | > 40 µM (inactive) | – | COc1ccc(CNC(=O)Cn2c(=O)[nH]c3c(-c4ccccc4F)c[nH]c3c2=O)cc1
22 | – | 5.05 | CCOc1ccc(-n2c(SCC(=O)Nc3ccc(C)cc3)nnc2-c2c[nH]c3ccccc23)cc1
23 | – | 4.45 | Cc1ccnc(NS(=O)(=O)c2ccc(NC(=O)c3ccc(S(=O)(=O)N(C)Cc4ccccc4)cc3)cc2)n1

Row | IC50 | pIC50 | SMILES
24 | > 40 µM (inactive) | – | COc1ccccc1-c1noc(CCCC(=O)Nc2ccccc2)n1
25 | > 40 µM (inactive) | – | Cc1ccc(Nc2nc(Nc3cccc(F)c3)nc3nccnc23)c(C)c1
26 | – | 4.46 | O=C(/C=C/c1ccco1)c1cccc([N+](=O)[O-])c1
27 | > 40 µM (inactive) | – | CC(CCc1ccccc1)NC(=O)Cn1c(=O)c2cccn2c2ccccc21 (stereo not drawn)
28 | > 40 µM (inactive) | – | O=C(/C=C/c1cccc([N+](=O)[O-])c1)N1CCc2ccccc21
29 | > 40 µM (inactive) | – | COc1ccc(C2NC(=O)NC(C)=C2C(=O)OCC2CCCCC2)cc1OC (stereo not drawn)
30 | > 40 µM (inactive) | – | CCCn1cc(-c2nc(-c3ccccn3)no2)c(=O)c2ccccc21
31 | > 40 µM (inactive) | – | COc1cccc(NC(=O)CCc2nnc3n(CCCOC(C)C)c(=O)c4ccccc4n23)c1
32 | – | 4.42 | COc1ccc(Cl)cc1NC(=O)CSc1ncnc2nc[nH]c12
33 | > 40 µM (inactive) | – | O=C(Cn1c(=O)n(CCC(=O)NC2CCCC2)c(=O)c2ccccc21)NCc1ccccc1Cl
34 | – | 4.85 | COc1ccc(Cl)cc1NC(=O)c1nc(-c2cn(-c3ccccc3)nn2)no1
35 | > 40 µM (inactive) | – | CCc1cc(=O)oc2c(C)c(OCC(=O)NCc3ccccn3)ccc12
36 | > 40 µM (inactive) | – | CCCn1c(=O)c2sccc2n2c(CCC(=O)N3CCc4ccccc4C3)nnc12
37 | – | 4.94 | Nc1c(-c2nc(-c3ccccc3Cl)no2)nnn1-c1ccc(Cl)cc1
38 | > 40 µM (inactive) | – | O=C(NCCc1cccnc1)c1ccn(-c2ccc3ccccn23)n1
39 | > 40 µM (inactive) | – | COc1ccc(NC(=O)Cn2cc(C(=O)c3ccc(F)cc3)c(=O)c3cc(C)ccc32)cc1OC
40 | – | 4.76 | O=C(CCn1c(=O)c2ccccc2n(CC(=O)OCc2ccccc2)c1=O)NCc1ccc2c(c1)OCO2
41 | > 40 µM (inactive) | – | Cc1cc(C(=O)CSc2nc3ccccc3[nH]2)c(C)n1Cc1ccco1
42 | > 40 µM (inactive) | – | Cc1ccccc1-c1noc(-c2cn(Cc3ccc(NC(=O)Cc4ccccc4)cc3)cn2)n1
43 | – | 4.57 | Cc1cccc(NC(=O)Nc2ccccc2OCc2cc(=O)n3cccc(C)c3n2)c1
44 | > 40 µM (inactive) | – | CCc1ccc(S(=O)(=O)c2cn(CC(=O)Nc3ccccc3)c3ccccc3c2=O)cc1
45 | > 40 µM (inactive) | – | Cc1cccc(NC(=O)c2noc3c2CCc2sccc2-3)n1
46 | > 40 µM (inactive) | – | CCCc1ccc(C(=O)[C@@H]2[C@@H](C(=O)c3cccs3)N3c4ccc(C)cc4C(C)=C[C@@H]3[C@@]23C(=O)Nc2ccccc23)cc1

Row | IC50 | pIC50 | SMILES
47 | > 40 µM (inactive) | – | O=C(Nc1cc(F)c2nc(N3CCOCC3)ccc2c1)C1CC1
48 | > 40 µM (inactive) | – | O=C(c1ccco1)N1CCC2(CC1)CC1(CO2)Nc2ccccc2-n2cccc21 (stereo not drawn)
49 | > 40 µM (inactive) | – | O=C(Cc1ccc(-n2c(=O)c3ccccc3n(Cc3cccc([N+](=O)[O-])c3)c2=O)cc1)NC1CCCC1
50 | – | 5.08 | Cn1c2ccccc2c(=O)c2c(=O)n(Cc3ccco3)c(-c3ccccc3F)nc21
51 | – | 4.80 | CC(C)=CCc1c(O)cc2c(c1C)OC(=O)c1c(C)c(Cl)c(O)c(CO)c1O2
52 | > 40 µM (inactive) | – | Cc1cc(CN2CCCCC2c2cc(=O)n3ccnc3[nH]2)no1 (stereo not drawn)
53 | – | 5.36 | COc1cc(C)cc2c1C(=O)c1c(cc(O)c(Cl)c1O)C2=O
54 | – | 4.41 | CC(=O)[C@H]1c2c(c(O)c3c(O)cccc3c2-c2c3c(c(O)c4c(O)cccc24)C(=O)C[C@](C)(O)[C@H]3C(C)=O)C(=O)C[C@]1(C)O
55 | > 40 µM (inactive) | – | COc1ccc(-n2ccc(=O)c(-c3nc(-c4ccc(F)cc4)no3)n2)cc1
56 | > 40 µM (inactive) | – | O=C(Nc1cccc2ccccc12)N1CCC(c2nc3c(nnn3Cc3ccc(F)cc3)c(=O)[nH]2)CC1
57 | > 40 µM (inactive) | – | CCOc1ccc2c(c1)c(=O)c(C(=O)c1ccccc1)cn2CC(=O)Nc1ccccc1
58 | > 40 µM (inactive) | – | Nc1ncc(-c2ccc(F)cc2)c(C2CCCN(C(=O)c3ccn[nH]3)C2)n1 (stereo not drawn)
59 | – | 4.54 | CC1(C)Cc2c(c(-c3ccco3)nc3sc4c(SCCCc5ccccc5)ncnc4c23)CO1
60 | – | 5.24 | O=C(c1cnc2[nH][nH]c(=O)c2c1)c1cc(Cl)cc(Cl)c1O
61 | > 40 µM (inactive) | – | COc1ccc(Cl)cc1NC(=O)Cn1c(=O)n(CCC(=O)NC2CCCC2)c(=O)c2ccccc21
62 | > 40 µM (inactive) | – | COc1cccc(C(=O)Nc2ccc(SC(C(=O)Nc3ccccc3)c3ccccc3)cc2)c1 (stereo not drawn)
63 | > 40 µM (inactive) | – | OC1CCCN(c2ncc(-c3cnccn3)c(-c3cccs3)n2)C1 (stereo not drawn)
64 | – | 4.62 | O=C1Cc2ccccc2C(=O)N1Cc1cccc(Cl)c1
65 | > 40 µM (inactive) | – | Oc1cccc2c(-c3ccc(O)c4c(O)cccc34)ccc(O)c12
66 | – | 4.87 | COc1ccc(Cl)cc1NC(=O)Cn1c(=O)n(CCCCC(=O)NCCc2ccccc2)c(=O)c2ccccc21
67 | > 40 µM (inactive) | – | CCOc1ccc(CCNC(=O)Cn2c(-c3ccc(F)cc3)cc(C(C)=O)c2C)cc1OCC
68 | – | 4.78 | O=C(Cn1c(=O)c2sccc2n(CC(=O)OCc2ccccc2)c1=O)NCc1ccccc1Cl
69 | > 40 µM (inactive) | – | Fc1cccc(Nc2nc(-c3ccccn3)nc3ccccc23)c1

Row | IC50 | pIC50 | SMILES
70 | > 40 µM (inactive) | – | O=C(c1cccc2ncccc12)N1CCN(c2ccnc3cc(Cl)ccc23)CC1
71 | > 40 µM (inactive) | – | CC(C)n1cc(CN2CCC(C(=O)Nc3cccc(-c4cccc(Cl)c4)c3)CC2)cn1
72 | > 40 µM (inactive) | – | O=C(Nc1ccccc1Cl)c1cc(-c2ccncc2)n[nH]1
73 | > 40 µM (inactive) | – | O=C(Cn1ncc2c(=O)oc3ccccc3c21)NCc1ccc2c(c1)OCO2
74 | – | 4.42 | O=C(NCc1ccc(F)cc1)c1cccc(Nc2nc3ccccc3n3cnnc23)c1
75 | – | 4.42 | Nc1ccc(C(=O)OCC(=O)NC2CCCc3ccccc32)cc1[N+](=O)[O-] (stereo not drawn)
76 | > 40 µM (inactive) | – | O=C(Cn1cc(C(=O)c2ccccc2)c(=O)c2cc(F)ccc21)Nc1ccc2c(c1)OCCO2
77 | > 40 µM (inactive) | – | CS(=O)(=O)c1cccc(C(=O)Nc2sc3c(c2C(N)=O)CCCC3)c1
78 | – | 5.04 | COc1cc2cc3c(c(O)c2c(O)c1-c1c(OC)cc2cc4c(c(O)c2c1O)C(=O)OC1CC(C)OC41)C(=O)OC1CC(C)OC31 (stereo not drawn)
79 | > 40 µM (inactive) | – | Cc1ccc([N+](=O)[O-])cc1S(=O)(=O)Nc1cc2sc(=O)oc2c2ccccc12
80 | > 40 µM (inactive) | – | O=C1CC(O)C(O)c2cccc(O)c21 (stereo not drawn)
81 | > 40 µM (inactive) | – | CSc1ccc(CNC(=O)Cn2c(=O)[nH]c3c(-c4ccccc4)c[nH]c3c2=O)cc1
82 | – | 4.44 | CSCCC(NC(=O)c1ccccc1)c1nc2ccccc2n1CC(=O)Nc1ccccc1 (stereo not drawn)
83 | – | 4.70 | O=C(Nc1ccc(-c2cn3ccsc3n2)cc1)c1ccc(Cl)c([N+](=O)[O-])c1
84 | – | 4.90 | COc1cc2c(=O)n(Cc3ccccc3)c(=O)n(CC(=O)N3CCCc4ccccc43)c2cc1OC
85 | > 40 µM (inactive) | – | COc1cc(NC(=O)Cn2nc(-c3ccc(F)cc3)ccc2=O)ccc1-n1cnnn1
86 | – | 4.74 | CC(=O)O[C@@H](C/C=C(\C)C(=O)O)[C@@H](C)[C@H]1C[C@H](OC(C)=O)[C@@]2(C)C3=CC[C@H]4C(C)(C)[C@H](O)CC[C@]4(C)C3=CC[C@]12C
87 | > 40 µM (inactive) | – | O=C(Nc1cccc(Cl)c1)c1cc(-c2cccnc2)n[nH]1
88 | > 40 µM (inactive) | – | Cc1cccc(N2CCN(C(=O)c3nc4cccnc4n(C)c3=O)CC2)c1C
89 | > 40 µM (inactive) | – | Cc1ccc(NC(=O)c2cc(-c3ccncc3)n[nH]2)cc1Cl
90 | > 40 µM (inactive) | – | COC(=O)Nc1cccn(Cc2c(Cl)cccc2Cl)c1=O
91 | > 40 µM (inactive) | – | CCOc1ccc(S(=O)(=O)Nc2ccc[nH]c2=O)cc1

Row | SMILES | IC50 | pIC50
92 | Cc1cccc(COc2ccc(C3SCC(=O)Nc4n[nH]c(C)c43)cc2)c1 (stereo not drawn) | > 40 µM (inactive) | –
93 | CC(C)=CCC[C@H](C(=O)O)[C@@H]1CC[C@]2(C)C3=C(CC[C@@]12C)[C@@]1(C)CCC(=O)C(C)(C)C1CC3 (stereo partly drawn) | – | 4.62
